Measured values published in patent US5120322A, “Method and apparatus for treatment of fibrotic lesions” (Lathrotec, Inc., priority 1990, dated 1992).
Counter-ions that a name gives are not always drawn. Like-named read-outs stand apart in the source and are kept apart here.

What was measured:
[1] = system: scarred and blocked fallopian tubes; assay: Example 2: fallopian tube stenosis-infertility; assay type: in vivo, human; details: BAPN-coated silastic tube stint; four to six week healing phase
From the text: A patient having scarred and blocked fallopian tubes as a result of infection has incisions made in the scar tissue and a BAPN- coated silastic tube stint placed in the fallopian tube after one week and left in place during the healing phase. The stint is continuously maintained in contact with the fresh wound and is changed two or three times during the four to six week healing phase as the lathyrogenic agent leaches off the surface of the silastic stint and is incorporated into the newly healing scar. The newly formed scar takes the shape of the stint.

[2] = systemic administration, humans; cited from earlier work
[3] = system: skin and other surrounding tissues; details: cited from earlier work
collagen crosslinking = details: cited from earlier work
[4] = Decomposition of BAPN in ointment, gels or solutions; assay type: physicochemical; details: decomposition into ammonia, aminonitrile and CO2
urethral stenosis = assay: Example 7: urethra-infection; assay type: in vivo, human; details: BAPN-F bonded silicone catheter; about six weeks
From the text: The old scar in the urethra is opened under direct surgical resection. Immediately afterward a silicone urethral bladder catheter is inserted. After one week, this catheter is exchanged for one with the lathyrogenic agent BAPN-F bonded onto its surface. The coated catheter is continuously maintained in place and changed ever week for about six weeks during the healing phase. During the healing phase new scar tissue is laid down. However, its strength is beneficially altered by the lathyrogen BAPN-F which inhibits the bonding of one protein scar fiber to the next protein scar fiber allowing the wound to be molded in the shape of the intraluminal stint (urinary bladder catheter).

tracheal injury = assay: Example 10: trachea; assay type: in vivo, human; details: silastic stint coated with 5.0 mM BAPN-F or D-Penicillamine; five or six weeks
Description: The patient suffering tracheal injury either due to a tracheostomy on an emergency basis or secondary to an automobile accident has primary anastomosis of the trachea resulting in a severe scar and impairment of the airway. The scar is excised and an endotracheal silastic stint coated with 5.0 mM BAPN-F or D-Penicillamine is put in place after one week and continuously maintained and changed on a weekly basis for five or six weeks during the healing phase. The lathyrogen is incorporated in the newly formed and healing wound where it allows the newly formed scar to be soft, plastic-like and conform to the diameter of the endotracheal stint.

[5] = system: circumferential suture line scar of bladder and urethra; assay: Example 4: urethra-prostatic cancer; assay type: in vivo, human; details: silicone catheter coated with 5.0 mM BAPN-F; three weeks
Description: A patient with prostatic cancer detected with sonography and a candidate for total prostatectomy has the prostate removed and the cuff of the bladder sewn to the most proximal remaining portion of the urethra. This circumferential suture line often progresses to heavy scarring preventing complete emptying of the bladder. The scar is cut away under anesthesia and direct resectoscope vision and immediately stinted with a silicone catheter coated with 5.0 mM BAPN-F. The catheter remains in continuous direct contact with the new wound tissue during healing. The BAPN-F leaches from the surface of the catheter, thereby inhibiting hardening of the healing scar during the next three weeks. The catheter is changed on a weekly basis to renew the BAPN-F supply.

[6] = system: transection of the membranous urethra; assay: Example 8: urethra-trauma; assay type: in vivo, human males; details: coated silicone catheter; about six weeks
From the text: Following fractured hips, 5-10% of human males suffer transection of the membranous urethra as it leaves the bladder. This transection requires primary anastamosis with catheter stinting, often resulting in severe scar formation and secondary bladder outlet obstruction. Balloon dilation (pressure balloon) to create new wound tissue may be performed or direct surgical resection removes the narrowed scar tissue. After one week, the original bladder catheter is exchanged for a silicone catheter coated with either BAPN-F or another lathyrogenic agent such as D-Penicillamine, which inhibits cross-linking (strong bonding) between scar collagen fibers. The coated catheter is continuously maintained in place and changed once a week for about six weeks during the healing phase.

[7] = system: peritendinous, perineural adhesions; assay: Clinical effect of topically applied BAPN-F gauze; assay type: in vivo; details: 20-40 mg BAPN-F per 100 cm^2 of gauze, placed wet over the lesions
From the text: In order to obtain long shelf life of BAPN medications the drug should be kept dry and out of contact with water. For this reason administration of BAPN as an ointment, in gels or solutions is rather impractical, as the medication has to be freshly prepared every 6-8 weeks. 6-8 weeks is the time of detection of the first decomposition product of BAPN into ammonia, aminonitrile and CO2. This invention can overcome the above problem by incorporating a solution with the known concentration of BAPN into the dressing material (gauze, collagen sponge) with a known surface area. The dressing material may be soaked with a known volume of BAPN solution, frozen and freeze dried to complete dryness.

[8] = system: common bile duct stenosis; assay: Example 11: common bile duct stenosis; assay type: in vivo, human; details: BAPN-F coated silastic tube; six weeks
From the text: The scar is partially resected and after one week an original silastic stint is exchanged for an intraluminal silastic tube coated with BAPN-F with one arm of the tube protruding into the duodenum. The BAPN-F leaches off the silastic tube and is incorporated into the newly formed scar, which is soft because BAPN-F blocks cross-linking. The tube is continuously maintained in place and on a weekly basis the patient returns to the gastroenterology lab where, under direct manipulation, the tube is exchanged every week for six weeks. Once healing is complete the tube is removed and the new lumen of the common bile duct is preserved. The patient is no longer jaundiced and fluids from the liver can pass into the duodenum uninhibited.

burns in the esophagus = details: dogs, cited from earlier work
[9] = system: full thickness dermal scar around the elbow; assay: Example 1: burn scar-elbow; assay type: in vivo, human; details: 5.0 mM BAPN-F and/or 20-25 mM D-penicillamine jelly or BAPN-F gauze (40 mg/100 cm^2); four to six weeks
Description: This restricts use. The hard scar is surgically "released" under general anesthesia by cutting in several places with or without a skin graft. The patient then has a lathyrogen applied and is placed in an elbow dynamic splint. This allows the elbow to be protected and at the same time to fully exercise the joint on a daily basis with or without the supervision of a physical therapist.
A lathyrogen jelly with 5.0 mM of BAPN-F and/or 20-25 mM D-penicillamine or a BAPN-F ]impregnated gauze (40 mg/100 cm^2 of gauze) is continuously applied to the wound during its healing phase beginning 4-8 days after surgical treatment and continued for four to six weeks in combination with physical therapy.

[10] = system: full thickness burn of the hand; assay: Example 5: burn scar-hand; assay type: in vivo, human; details: jelly containing 5 mM/L BAPN-F; four to six weeks
Description: A patient with a well healed full thickness burn of the hand has severe scarring of the fingers and hand in a claw-like form. The old scars are surgically released to create full mobility of the joints. The hand is placed in a "dynamic splint." The splint contains rubber band fixation to a rigid frame allowing the patient to exercise their fingers through a full range of motion. During the healing phase and on a daily basis, a jelly containing 5 mM/L of the lathyrogenic agent BAPN-F is continuously applied to the surgically "released" areas. The patient continues to exercise and use the dynamic splint during the healing phase over the next four to six weeks. […] The dynamic splint is removed. Healing is complete and range of motion restored.

[11] = rabbit, in vivo
Description: This example illustrates the efficacy of collagen- resorcinol-glutaraldehyde polymer as a BAPN-F delivery system. One hundred parts of medical grade purity collagen, prepared by a known procedure, is mixed with three hundred parts of water and heated until collagen dissolves to form a viscous solution. […] One milliliter of this mixture per kilogram of rabbit body weight was injected under the skin, after quick mixing of the appropriate volume of the mixture with 1/10 of its volume of 3 percent glutaraldehyde in a 5 ml plastic syringe. […] The rate of the release of the BAPN-F from the polymer was studied by direct measuring of the amount of BAPN-F in the blood, collected from the ear vein of the rabbit at time intervals shown in Table 1.
For comparison, the same amount of BAPN-F was injected under the skin of control rabbits as water solution.

Compound: N#CCCN [BAPN, Beta-aminopropionitrile]
- opening of the fallopian tube [1]: the opening of the fallopian tube is preserved and egg and sperm transport can now cross the previously blocked fallopian tube
- systemic tolerance (therapeutic vs. toxic concentrations) [2]: therapeutic and toxic concentrations are so close that they cannot be systemically tolerated by humans
- penetration of skin and other surrounding tissues (thickness) [3]: a few millimeters in thickness
- inhibition of crosslinking (collagen crosslinking): crosslinking can be inhibited
- time of detection of the first decomposition product [4]: 6-8 weeks

Compound: N#CCCN [BAPN-F, Beta-aminopropionitrile fumarate]
- urination after stint removal (urethral stenosis): normal unobstructed urination can proceed
- scarring and airway dynamics (tracheal injury): no further scarring takes place, the medication and stint is discontinued and the patient returns to normal airway dynamics
- scarring of bladder-urethra suture line [5]: no new scarring takes place
- opening after catheter removal [6]: a normal sized opening is present
- clinical effect on fibrotic adhesions [7]: evident clinical effect of a topically applied gauze-placed wet over the lesions, such as peritendinous, perineural adhesions with prevention or reduction of the incidence of fibrotic adhesions
- lumen of the common bile duct, jaundice [8]: the new lumen of the common bile duct is preserved. The patient is no longer jaundiced
- ingestion of food during treatment (burns in the esophagus; esophageal burns): severe problems in the ingestion of food
- toxicity (burns in the esophagus; systemically introduced): serious toxicity problems
- range of motion at the elbow [9]: the patient resumes full range of motion at the elbow
- range of hand motion [10]: full range of motion without further restriction of hand motion

Compound: CC(C)(S)[C@@H](N)C(=O)O [D-Penicillamine]
- systemic tolerance (therapeutic vs. toxic concentrations) [2]: therapeutic and toxic concentrations are so close that they cannot be systemically tolerated by humans
- scarring and airway dynamics (tracheal injury): no further scarring takes place, the medication and stint is discontinued and the patient returns to normal airway dynamics
- opening after catheter removal [6]: a normal sized opening is present
- inhibition of crosslinking (collagen crosslinking): crosslinking can be inhibited
- range of motion at the elbow [9]: the patient resumes full range of motion at the elbow

Compound: Water
- time to maximum in serum [11]: reaches a maximum in serum within two hours after injection
- Plasma Level (BAPN-F) ([11]; 120 min): 3.2
- Plasma Level (BAPN-F) ([11]; 240 min): 2.9
- Plasma Level (BAPN-F) ([11]; 360 min): 2.1
- Plasma Level (BAPN-F) ([11]; 600 min): 1.0
- Plasma Level (BAPN-F) ([11]; 960 min): 0.1
- Plasma Level (BAPN-F) ([11]; 2880 min): 0
- Plasma Level (BAPN-F) ([11]; 4320 min): 0
- Plasma Level (BAPN-F) ([11]; 5760 min): 0
- Plasma Level (BAPN-F) ([11]; 10080 min): 0
